How the values were obtained:
Pyricularia oryzae = format: in vivo; conditions: blast of rice, 20 ppm in sprayed dilution
blast of rice = conditions: commercially available antibiotic chemical; cited from earlier work
[1] = test system: Colletotrichum lagenarium; assay: Test on control effect on anthracnose in cucumber; format: in vivo; conditions: 1000 ppm in sprayed composition
Protocol: Cucumber seedlings (Sagami Hanpaku variety) planted one plant per pot were used for the test, and each test area included three pots. After seeding was carried out by using Kureha Soil, the pots were kept for 2 weeks in an air-conditioned green house (maximum daytime temperature=28° C., minimum night temperature=20° C., light illumination time=12 hours per day, light source=sunglow lamp) to grow the cucumber plants.
A chemical composition having a predetermined concentration, which was prepared according to the method described in Example 3 was sprayed on the plants by a spray gun and the plants were air-dried for 2 hours in a green house.
Spores of a pathogenic fungus causing anthracnose in cucumber (Colletotrichum lagenarium), which had been cultured for 10 days at 23° C. in an agar slant culture medium of sweet corn, were taken into sterilized water, and one drop of a spreader was added to 50 cc of the spore suspension. In an inoculation box, the spore suspension was sprayed on the plants in an amount of 50 cc per 50 seedling by a spray gun to effect inoculation. […]
The total number of disease spots on leaves of the plants of each area was counted and the control value was calculated according to the following formula: [formula]

plants = assay: Phytotoxicity (general statement); format: in vivo

CN(CC[C@H](N)CC(=O)N[C@H]1C=C[C@H](n2ccc(N)nc2=O)O[C@@H]1C(=O)O)C(=N)N [Blasticidin S, blasticidinS-benzylaminobenzene-sulfonate]
Control Value (Pyricularia oryzae): 95% | Specificity of controlling effect (blast of rice): specific effect on blast of rice alone

manganous ethylene1,2-bis-dithiocarbomate- [Maneb-Dithane]
Control Value [1]: 95% | Phytotoxicity (plants): causes phytotoxicity
